How the values were obtained:
Format in all cases: cell-based, human
AR mRNA = AR mRNA levels in LMR20 cells (with/without DHT or R1881); conditions: for AR mRNA levels (% baseline value) after treatment with DHT / AR mRNA levels (% baseline value) after treatment with R1881 / AR mRNA levels (% baseline value) of cells without AR agonist treatment: LMR20 cells; for AR mRNA levels (% baseline value) after treatment with DHT: DHT 10 nM 72 hrs; for AR mRNA levels (% baseline value) after treatment with R1881: R1881 10 nM 72 hrs; for AR mRNA levels (% baseline value) of cells without AR agonist treatment: no AR agonist
Description: (§1) LMR20 cells were plated at 1,500 cells per well in phenol red-free medium with CSS.

TMPRSS2 mRNA [1] = assay: TMPRSS2 mRNA levels in LMR20 cells; conditions: for TMPRSS2 mRNA levels (% baseline value) after treatment with DHT / TMPRSS2 mRNA levels (% baseline value) after treatment with R1881 / TMPRSS2 mRNA levels (% baseline value) of cells without AR agonist treatment: LMR20 cells; for TMPRSS2 mRNA levels (% baseline value) after treatment with DHT: DHT 10 nM 72 hrs; for TMPRSS2 mRNA levels (% baseline value) after treatment with R1881: R1881 10 nM 72 hrs; for TMPRSS2 mRNA levels (% baseline value) of cells without AR agonist treatment: no AR agonist
Description: as §1

C4-2B cells = assay: C4-2B cell proliferation, ASO in combination with MDV3100 (Example 21); conditions: Homo sapiens, read-out: inhibited proliferation, MDV3100 with control oligonucleotide ISIS 549148
Description: C4-2B cells were plated at 1,000 cells per well. […] ISIS 549148 was included as a negative control. […] After a treatment period of 5 days, the proliferative capacity of the cancer cells was measured with CellTiter 96® AQueous One Solution Cell Proliferation kit (Promega), following the manufacturer's instructions. […]

TMPRSS2 mRNA [2] = assay: Time-course TMPRSS2 expression in C4-2B cells
Description: C4-2B cells were plated at 1,000 cells per well in complete medium. […] ISIS 549148 was included as a negative control. […] After a treatment period of 8 hours, 24 hours, and 48 hours, AR expression was measured with primer probe set hAR-LTS00943. Results are presented in Tables 70-72 as percent expression of AR, relative to non-treated cells.
Expression analysis of prostate-specific antigen (PSA) and TMPRSS2 were also analyzed. Results are presented in Tables 73-75 as percent inhibition of PSA expression and Tables 76-78 as percent inhibition of TMPRSS2 expression, relative to non-treated cells.

PSA mRNA = assay: PSA expression in C4-2 cells; conditions: 48 hrs; for Percent inhibition of PSA expression: C4-2 cells, CSS + DHT medium
Description: Cells were plated at 1,000 cells per well. […] After an incubation period of 48 hrs, RNA levels of AR, PSA and TMPRSS2 were measured.
Cells were plated at 2,000 cells per well and cultured in CSS media with 1 nM DHT. […] After an incubation period of 48 hrs, RNA levels of AR, PSA and TMPRSS2 were measured.

VCaP cells = assay: VCaP cell proliferation; conditions: 5 days; for Proliferation (% untreated control): VCaP cells
Description: (§2) After a treatment period of 5 days in complete medium or CSS+1 nM DHT medium, the proliferative capacity of the cancer cells was measured with using CellTiter 96® AQueous One or CellTiter-Glo® Solution Cell Proliferation kit (Promega), following the manufacturer's instructions. […] Treatment with ISIS oligonucleotides in CSS+DHT medium reduced the proliferative capacity to a greater extent than treatment with MVD-3100. The proliferative capacity of cells cultured in CSS medium without DHT is 12% of untreated control levels.

22RV1 cells = assay: 22RV1 cell proliferation (Example 32); conditions: 5 days
Description: as §2, with “complete” for “complete medium or CSS+1 nM DHT”

Compound: CNC(=O)c1ccc(N2C(=S)N(c3ccc(C#N)c(C(F)(F)F)c3)C(=O)C2(C)C)cc1F [MDV3100, 4-(3-(4-cyano-3-(trifluoromethyl)phenyl)-5,5-dimethyl-4-oxo-2-thioxoimidazolidin-1-yl)-2-fluoro-N-methylbenzamide, reference compound]
- AR mRNA levels (% baseline value) after treatment with DHT (AR mRNA; ASO 0.04 μM): 105 % baseline value
- AR mRNA levels (% baseline value) after treatment with DHT (AR mRNA; ASO 0.20 μM): 124 % baseline value
- AR mRNA levels (% baseline value) after treatment with DHT (AR mRNA; ASO 1.0 μM): 110 % baseline value
- AR mRNA levels (% baseline value) after treatment with DHT (AR mRNA; ASO 5.0 μM): 143 % baseline value
- AR mRNA levels (% baseline value) after treatment with R1881 (AR mRNA; ASO 0.04 μM): 94 % baseline value
- AR mRNA levels (% baseline value) after treatment with R1881 (AR mRNA; ASO 0.20 μM): 107 % baseline value
- AR mRNA levels (% baseline value) after treatment with R1881 (AR mRNA; ASO 1.0 μM): 115 % baseline value
- AR mRNA levels (% baseline value) of cells without AR agonist treatment (AR mRNA; ASO 0.04 μM): 106 % baseline value
- AR mRNA levels (% baseline value) of cells without AR agonist treatment (AR mRNA; ASO 0.20 μM): 101 % baseline value
- AR mRNA levels (% baseline value) of cells without AR agonist treatment (AR mRNA; ASO 1.0 μM): 99 % baseline value
- AR mRNA levels (% baseline value) of cells without AR agonist treatment (AR mRNA; ASO 5.0 μM): 92 % baseline value
- AR mRNA levels in LMR20 cells (AR mRNA; with or without DHT/R1881): increased the levels of AR mRNA in cells treated with AR agonist
- TMPRSS2 mRNA levels (% baseline value) after treatment with DHT (TMPRSS2 mRNA [1]; ASO 0.04 μM): 134 % baseline value
- TMPRSS2 mRNA levels (% baseline value) after treatment with DHT (TMPRSS2 mRNA [1]; ASO 0.20 μM): 144 % baseline value
- TMPRSS2 mRNA levels (% baseline value) after treatment with DHT (TMPRSS2 mRNA [1]; ASO 1.0 μM): 132 % baseline value
- TMPRSS2 mRNA levels (% baseline value) after treatment with DHT (TMPRSS2 mRNA [1]; ASO 5.0 μM): 124 % baseline value
- TMPRSS2 mRNA levels (% baseline value) after treatment with R1881 (TMPRSS2 mRNA [1]; ASO 0.20 μM): 125 % baseline value
- TMPRSS2 mRNA levels (% baseline value) after treatment with R1881 (TMPRSS2 mRNA [1]; ASO 1.0 μM): 133 % baseline value
- TMPRSS2 mRNA levels (% baseline value) after treatment with R1881 (TMPRSS2 mRNA [1]; ASO 5.0 μM): 139 % baseline value
- TMPRSS2 mRNA levels (% baseline value) of cells without AR agonist treatment (TMPRSS2 mRNA [1]; ASO 0.04 μM): 101 % baseline value
- TMPRSS2 mRNA levels (% baseline value) of cells without AR agonist treatment (TMPRSS2 mRNA [1]; ASO 0.20 μM): 119 % baseline value
- TMPRSS2 mRNA levels (% baseline value) of cells without AR agonist treatment (TMPRSS2 mRNA [1]; ASO 1.0 μM): 119 % baseline value
- TMPRSS2 mRNA levels (% baseline value) of cells without AR agonist treatment (TMPRSS2 mRNA [1]; ASO 5.0 μM): 141 % baseline value
- TMPRSS2 mRNA levels in LMR20 cells (TMPRSS2 mRNA [1]; with or without DHT/R1881): did not reduce either PSA or TMPRSS2 mRNA levels
- inhibition at 0.08 µM (C4-2B cells): 0%
- inhibition at 0.4 µM (C4-2B cells): 6%
- Percent inhibition of TMPRSS2 expression compared to the control group in 8 hours (TMPRSS2 mRNA [2]; 0.04 μM): 0%
- Percent inhibition of TMPRSS2 expression compared to the control group in 24 hours (TMPRSS2 mRNA [2]; 0.04 μM): 23%
- Percent inhibition of TMPRSS2 expression compared to the control group in 48 hours (TMPRSS2 mRNA [2]; 0.04 μM): 5%
- Percent inhibition of TMPRSS2 expression compared to the control group in 8 hours (TMPRSS2 mRNA [2]; 0.2 μM): 6%
- Percent inhibition of TMPRSS2 expression compared to the control group in 24 hours (TMPRSS2 mRNA [2]; 0.2 μM): 31%
- Percent inhibition of TMPRSS2 expression compared to the control group in 48 hours (TMPRSS2 mRNA [2]; 0.2 μM): 16%
- Percent inhibition of TMPRSS2 expression compared to the control group in 8 hours (TMPRSS2 mRNA [2]; 1 μM): 45%
- Percent inhibition of TMPRSS2 expression compared to the control group in 24 hours (TMPRSS2 mRNA [2]; 1 μM): 63%
- Percent inhibition of TMPRSS2 expression compared to the control group in 48 hours (TMPRSS2 mRNA [2]; 1 μM): 46%
- Percent inhibition of TMPRSS2 expression compared to the control group in 8 hours (TMPRSS2 mRNA [2]; 5.0 μM): 52%
- Percent inhibition of TMPRSS2 expression compared to the control group in 24 hours (TMPRSS2 mRNA [2]; 5.0 μM): 72%
- Percent inhibition of TMPRSS2 expression compared to the control group in 48 hours (TMPRSS2 mRNA [2]; 5.0 μM): 59%
- TMPRSS2 expression (TMPRSS2 mRNA [2]; time course): also reduced downstream gene expressions but not as potently as that with the ISIS oligonucleotides
- Percent inhibition of PSA expression (PSA mRNA; 0.04 μM): 9%
- Percent inhibition of PSA expression (PSA mRNA; 0.2 μM): 8%
- Percent inhibition of PSA expression (PSA mRNA; 1 μM): 51%
- Percent inhibition of PSA expression (PSA mRNA; 5.0 μM): 73%
- Percent inhibition of PSA expression in C4-2 cells cultured in complete medium (PSA mRNA; 0.04 μM): 28%
- Percent inhibition of PSA expression in C4-2 cells cultured in complete medium (PSA mRNA; 0.2 μM): 40%
- Percent inhibition of PSA expression in C4-2 cells cultured in complete medium (PSA mRNA; 1 μM): 72%
- Percent inhibition of PSA expression in C4-2 cells cultured in complete medium (PSA mRNA; 5.0 μM): 89%
- Proliferation (% untreated control) (VCaP cells; CSS + DHT medium, 0.04 μM): 117 % untreated control
- Proliferation (% untreated control) (VCaP cells; CSS + DHT medium, 0.2 μM): 119 % untreated control
- Proliferation (% untreated control) (VCaP cells; CSS + DHT medium, 1.0 μM): 71 % untreated control
- Proliferation (% untreated control) (VCaP cells; CSS + DHT medium, 5.0 μM): 65 % untreated control
- Proliferation (% untreated control) (VCaP cells; Complete medium, 0.04 μM): 49 % untreated control
- Proliferation (% untreated control) (VCaP cells; Complete medium, 0.2 μM): 44 % untreated control
- Proliferation (% untreated control) (VCaP cells; Complete medium, 1.0 μM): 27 % untreated control
- Proliferation (% untreated control) (VCaP cells; Complete medium, 5.0 μM): 17 % untreated control
- proliferation of VCaP cells (VCaP cells; complete medium or CSS+1 nM DHT): reduced proliferation of the cells in a dose dependent compared to the control
- Proliferation (% untreated control) in 22RV1 cells treated with MDV-3100 (22RV1 cells; 0.04 μM): 87%
- Proliferation (% untreated control) in 22RV1 cells treated with MDV-3100 (22RV1 cells; 0.2 μM): 83%
- Proliferation (% untreated control) in 22RV1 cells treated with MDV-3100 (22RV1 cells; 1.0 μM): 81%
- Proliferation (% untreated control) in 22RV1 cells treated with MDV-3100 (22RV1 cells; 5.0 μM): 74%
- proliferation of 22RV1 cells (22RV1 cells): reduced proliferation of the cells in a dose dependent compared to the control
